{"source": "patent US20220280507A1", "about": "“USES OF 5-METHYLTETRAHYDROFOLATE AND ITS COMPOSITION” (Lianyungang Jinkang Hexin Pharmaceutical Co., Ltd., priority 2019, published 2022)", "key": {"hyperlipemia rats": {"system": "hyperlipemia rats", "assay": "Hyperlipemia rats (high-fat diet), body mass, liver mass, liver index, NASH pathology", "assay_type": "in vivo, SD rats", "details": "for Body mass / Liver index / Liver mass: 8 cases; for Pathological state (NASH): of 8 cases", "protocol": "Experiment 5 Effect of 5-Methyltetrahydrofolate Calcium on Hyperlipemia Rats\n7 weeks later, one rat in the control group and one rat in the model group were sacrificed for liver tissue section to check fatty degeneration of hepatocytes (see Table 7) to confirm whether modeling was successful. The remaining 40 modeling rats were randomly divided into low-dose (1 mg·Kg−1) group, medium-dose (2 mg·Kg−1) group, high-dose (4 mg·Kg−1) group, positive drug group, and model group.\nBicyclol (place of origin: Beijing Xiehe Pharmaceutical Factory, specification: 25 mg/tablet, batch number: H20040467) was used as a positive drug.\nAfter successful modeling, rats were administered drugs with dosages as prescribed for 60 consecutive days, continued to be fed with high-fat diet, and dissected on the 61st day. Liver was harvested and weighed, liver index was calculated, right lobe tissue was taken to prepare frozen sections, and fat staining was performed with Sudan III for pathological scoring according to guidelines for diagnosis and treatment of NAFLD. Another liver tissue was taken to prepare homogenate, and total cholesterol (TC), triglyceride (TG), malondialdehyde (MDA), and superoxide dismutase (SOD) in serum were detected."}, "[1]": {"system": "methanol metabolism in rats", "details": "n=5", "protocol": "Experiment 10 Effects of Drinking and 5-Methyltetrahydrofolate on the Formate in the Urine of SD Rats\nIn order to study the effects of 5-methyltetrahydrofolate and ethanol on methanol metabolism in rats, SPF-grade female SD rats, fasted overnight, were divided into 4 groups: (1) ethanol group, with intragastric administration of ethanol at a dose of 1 g/kg respectively at 1, 2, 3 h, n=7; (2) control group, with intragastric administration of glucose at a dose of 1.6 g/kg (equivalent to alcohol calories) respectively at 1, 2, and 3 h, n=5; (3) 5-methyltetrahydrofolate group, with intragastric administration of 5-methyltetrahydrofolate calcium at a dose of 4 mg/kg at 0 h, followed by glucose at a dose of 1.6 g/kg (equivalent to alcohol calories) respectively at 1, 2, and 3 h, n=5; (4) 5-methyltetrahydrofolate alcohol group, with intragastric administration of 5-methyltetrahydrofolate calcium at a dose of 4 mg/kg at 0 h, followed by ethanol at a dose of 1 g/kg respectively at 1, 2, and 3 h, n=5.\nFood grade alcohol was used, with a methanol content of less than 5 mg/L. Urine was collected, from 0 to 24 h, into a test tube containing 0.1 mL of thioethanol and stored at −70° C. The urine samples were divided into three parts, of which gas chromatographic method, fluorescence method and HPLC-DNPH derivative method were used to detect ethanol and methanol contents (see Table 16), formate content, and formaldehyde content (see Table 17) in urine, respectively.\nThe method for detecting formate is as follows: 0.1 mL of urine was mixed with 0.1 mL of 10 mmol/L NAD+, 0.1 mL of potassium phosphate buffer (pH 7.4, 20 mmol/L) and 50 μL of formate dehydrogenase, then 0.1 mL of diaphorase (4 U/mL), 50 μL of resazurin solution (0.2 mg/ml) and 0.5 ml of phosphate buffer (pH 6.00, 200 mmol/L) were added. The mixture was incubated at 37° C. for 5 min, then immersed in boiling water for 3 min, and then cooled to room temperature. Fluorescence spectrophotometry was used to determine the content of formate in the mixture, with an emission wavelength of 590 nm and an absorption wavelength of 565 nm.\nThe method for detecting formaldehyde is as follows: 0.1 ml of urine was taken and filtered through filtering membrane, 0.05 ml of 2,4-dinitrophenylhydrazine (DNPH, 0.1 g/L) and 0.25 ml of trifluoroacetic acid were added to it. The sample was vortexed for 30 s, centrifuged, […]. HPLC was used for analysis, with a detection wavelength of 355 nm, column temperature of 35° C., and mobile phase of 65% acetonitrile."}, "[2]": {"details": "5-methyltetrahydrofolate calcium 4 mg/kg ig at 0 h + ethanol 1 g/kg at 1, 2, 3 h"}, "[3]": {"details": "5-methyltetrahydrofolate calcium 4 mg/kg ig at 0 h + glucose 1.6 g/kg at 1, 2, 3 h"}}, "note": "Like-named read-outs stand apart in the source and are kept apart here.", "data": [{"compound": "5-methyltetrahydrofolate calcium", "values": [{"measurement": "Body mass", "setting": "hyperlipemia rats; high dose 4 mg·Kg−1, 60 d", "value": "472.49 ± 37.8", "unit": "g"}, {"measurement": "Liver index", "setting": "hyperlipemia rats; high dose 4 mg·Kg−1, 60 d", "value": "2.3 ± 0.5"}, {"measurement": "Liver mass", "setting": "hyperlipemia rats; high dose 4 mg·Kg−1, 60 d", "value": "10.9 ± 2.5", "unit": "g"}, {"measurement": "Pathological state (NASH)", "setting": "hyperlipemia rats; high dose 4 mg·Kg−1, 60 d", "value": 0, "unit": "case"}, {"measurement": "Body mass", "setting": "hyperlipemia rats; low dose 1 mg·Kg−1, 60 d", "value": "445.89 ± 39.0", "unit": "g"}, {"measurement": "Liver index", "setting": "hyperlipemia rats; low dose 1 mg·Kg−1, 60 d", "value": "3.4 ± 0.3"}, {"measurement": "Liver mass", "setting": "hyperlipemia rats; low dose 1 mg·Kg−1, 60 d", "value": "15.3 ± 3.5", "unit": "g"}, {"measurement": "Pathological state (NASH)", "setting": "hyperlipemia rats; low dose 1 mg·Kg−1, 60 d", "value": 1, "unit": "case"}, {"measurement": "Body mass", "setting": "hyperlipemia rats; medium dose 2 mg·Kg−1, 60 d", "value": "452.93 ± 37.5", "unit": "g"}, {"measurement": "Liver index", "setting": "hyperlipemia rats; medium dose 2 mg·Kg−1, 60 d", "value": "2.6 ± 0.2"}, {"measurement": "Liver mass", "setting": "hyperlipemia rats; medium dose 2 mg·Kg−1, 60 d", "value": "11.6 ± 2.9", "unit": "g"}, {"measurement": "Pathological state (NASH)", "setting": "hyperlipemia rats; medium dose 2 mg·Kg−1, 60 d", "value": 0, "unit": "case"}]}, {"compound": "CN1c2c([nH]c(N)nc2=O)NCC1CNc1ccc(C(=O)N[C@@H](CCC(=O)O)C(=O)O)cc1", "note": "(stereo partly drawn) [5-methyltetrahydrofolate, N-[4-[[(2-amino-1,4,5,6,7,8-hexahydro-4-oxo-5-methyl-(6S), -(6R), and (6R,S)-pteridyl)methyl)amino)toluoyl-glutamic acid]", "values": [{"measurement": "Ethanol content in urine, 3 h", "setting": "[1]; [2]", "value": "11.6 ± 1.3", "unit": "mg/L"}, {"measurement": "Formaldehyde content in urine, 3 h", "setting": "[1]; [2]", "value": "0.8 ± 0.4", "unit": "mg/L"}, {"measurement": "Formate content in urine, 3 h", "setting": "[1]; [2]", "value": "241 ± 42", "unit": "mg/L"}, {"measurement": "Methanol content in urine, 3 h", "setting": "[1]; [2]", "value": "1.6 ± 0.3", "unit": "mg/L"}, {"measurement": "Ethanol content in urine, 4 h", "setting": "[1]; [2]", "value": "25.2 ± 2.2", "unit": "mg/L"}, {"measurement": "Formaldehyde content in urine, 4 h", "setting": "[1]; [2]", "value": "1.7 ± 0.6", "unit": "mg/L"}, {"measurement": "Formate content in urine, 4 h", "setting": "[1]; [2]", "value": "255 ± 30", "unit": "mg/L"}, {"measurement": "Methanol content in urine, 4 h", "setting": "[1]; [2]", "value": "2.5 ± 0.4", "unit": "mg/L"}, {"measurement": "Ethanol content in urine, 8 h", "setting": "[1]; [2]", "value": "24.1 ± 2.3", "unit": "mg/L"}, {"measurement": "Formaldehyde content in urine, 8 h", "setting": "[1]; [2]", "value": "2.9 ± 1.2", "unit": "mg/L"}, {"measurement": "Formate content in urine, 8 h", "setting": "[1]; [2]", "value": "345 ± 43", "unit": "mg/L"}, {"measurement": "Methanol content in urine, 8 h", "setting": "[1]; [2]", "value": "6.4 ± 1.0", "unit": "mg/L"}, {"measurement": "Ethanol content in urine, 12 h", "setting": "[1]; [2]", "value": "11.8 ± 2.0", "unit": "mg/L"}, {"measurement": "Formaldehyde content in urine, 12 h", "setting": "[1]; [2]", "value": "3.1 ± 1.0", "unit": "mg/L"}, {"measurement": "Formate content in urine, 12 h", "setting": "[1]; [2]", "value": "351 ± 45", "unit": "mg/L"}, {"measurement": "Methanol content in urine, 12 h", "setting": "[1]; [2]", "value": "4.4 ± 0.9", "unit": "mg/L"}, {"measurement": "Ethanol content in urine, 16 h", "setting": "[1]; [2]", "value": "4.3 ± 0.8", "unit": "mg/L"}, {"measurement": "Formaldehyde content in urine, 16 h", "setting": "[1]; [2]", "value": "1.9 ± 0.9", "unit": "mg/L"}, {"measurement": "Formate content in urine, 16 h", "setting": "[1]; [2]", "value": "247 ± 48", "unit": "mg/L"}, {"measurement": "Methanol content in urine, 16 h", "setting": "[1]; [2]", "value": "3.7 ± 0.9", "unit": "mg/L"}, {"measurement": "Ethanol content in urine, 24 h", "setting": "[1]; [2]", "value": "1.7 ± 0.7", "unit": "mg/L"}, {"measurement": "Formaldehyde content in urine, 24 h", "setting": "[1]; [2]", "value": "1.0 ± 0.5", "unit": "mg/L"}, {"measurement": "Formate content in urine, 24 h", "setting": "[1]; [2]", "value": "211 ± 39", "unit": "mg/L"}, {"measurement": "Methanol content in urine, 24 h", "setting": "[1]; [2]", "value": "1.9 ± 0.7", "unit": "mg/L"}, {"measurement": "Ethanol content in urine, 3 h", "setting": "[1]; [3]", "value": "0.6 ± 0.4", "unit": "mg/L"}, {"measurement": "Formaldehyde content in urine, 3 h", "setting": "[1]; [3]", "value": "0.8 ± 0.4", "unit": "mg/L"}, {"measurement": "Formate content in urine, 3 h", "setting": "[1]; [3]", "value": "215 ± 33", "unit": "mg/L"}, {"measurement": "Methanol content in urine, 3 h", "setting": "[1]; [3]", "value": "1.0 ± 0.3", "unit": "mg/L"}, {"measurement": "Ethanol content in urine, 4 h", "setting": "[1]; [3]", "value": "0.8 ± 0.5", "unit": "mg/L"}, {"measurement": "Formaldehyde content in urine, 4 h", "setting": "[1]; [3]", "value": "0.8 ± 0.5", "unit": "mg/L"}, {"measurement": "Formate content in urine, 4 h", "setting": "[1]; [3]", "value": "237 ± 42", "unit": "mg/L"}, {"measurement": "Methanol content in urine, 4 h", "setting": "[1]; [3]", "value": "1.1 ± 0.4", "unit": "mg/L"}, {"measurement": "Ethanol content in urine, 8 h", "setting": "[1]; [3]", "value": "1.5 ± 0.4", "unit": "mg/L"}, {"measurement": "Formaldehyde content in urine, 8 h", "setting": "[1]; [3]", "value": "0.7 ± 0.4", "unit": "mg/L"}, {"measurement": "Formate content in urine, 8 h", "setting": "[1]; [3]", "value": "198 ± 36", "unit": "mg/L"}, {"measurement": "Methanol content in urine, 8 h", "setting": "[1]; [3]", "value": "1.2 ± 0.4", "unit": "mg/L"}, {"measurement": "Ethanol content in urine, 12 h", "setting": "[1]; [3]", "value": "1.5 ± 0.3", "unit": "mg/L"}, {"measurement": "Formaldehyde content in urine, 12 h", "setting": "[1]; [3]", "value": "0.8 ± 0.3", "unit": "mg/L"}, {"measurement": "Formate content in urine, 12 h", "setting": "[1]; [3]", "value": "187 ± 32", "unit": "mg/L"}, {"measurement": "Methanol content in urine, 12 h", "setting": "[1]; [3]", "value": "1.1 ± 0.4", "unit": "mg/L"}, {"measurement": "Ethanol content in urine, 16 h", "setting": "[1]; [3]", "value": "1.7 ± 0.5", "unit": "mg/L"}, {"measurement": "Formaldehyde content in urine, 16 h", "setting": "[1]; [3]", "value": "0.8 ± 0.5", "unit": "mg/L"}, {"measurement": "Formate content in urine, 16 h", "setting": "[1]; [3]", "value": "190 ± 41", "unit": "mg/L"}, {"measurement": "Methanol content in urine, 16 h", "setting": "[1]; [3]", "value": "1.3 ± 0.5", "unit": "mg/L"}, {"measurement": "Ethanol content in urine, 24 h", "setting": "[1]; [3]", "value": "1.6 ± 0.4", "unit": "mg/L"}, {"measurement": "Formaldehyde content in urine, 24 h", "setting": "[1]; [3]", "value": "0.8 ± 0.4", "unit": "mg/L"}, {"measurement": "Formate content in urine, 24 h", "setting": "[1]; [3]", "value": "188 ± 36", "unit": "mg/L"}, {"measurement": "Methanol content in urine, 24 h", "setting": "[1]; [3]", "value": "1.1 ± 0.3", "unit": "mg/L"}]}]}
